The results in this text go back to a melting point compilation (Tetko et al.; mined from patent text by program, amines drawn as free bases though some values may be those of a salt).

As usually defined, the melting point is the temperature, or range, at which the solid turns liquid. `CC(=O)NC(=O)C(=O)c1ccccc1`: the melting point is 124 to 125 °C. The same measure for `COC(=O)c1cccc2nc(SCCCN3CCCN(CC(=O)Nc4c(C(C)C)cccc4C(C)C)CC3)oc12`: 83 to 85 °C; for `C=Cc1cnc(C)c(OC(=O)OCC)c1CSC(=O)OCC`: 142 to 145 °C; for `CS(=O)(=O)c1ccc(-c2c(OCC(=O)c3ccc(F)cc3)nn(CC(=O)c3ccc(F)cc3)c2-c2ccc(F)cc2)cc1`: 191 to 193 °C. The same measure for `Cc1cc2c(cc1F)N(C(N)=O)C(=O)C2`: 200 to 203 °C; for `Cc1cc(C(=O)O)ccc1NC(=O)C(CS)Cc1ccccc1` (stereo not drawn): 217 to 218 °C. The same measure for `COc1ccc(C=CC(=O)c2c(OC)cc(OC)cc2OC(=O)c2ccccc2)cc1`: 134 °C; for `CCCc1c(OCCCCCC(=O)c2ccc(O)c(O)c2)ccc(C(=O)O)c1O`: 188 to 191 °C; for `CSc1ccc(/C=C/C(=O)/C=C/C(=O)O)cc1`: 160 to 163 °C. Take `COC(=O)c1ccc(/C=C/c2nc(-c3ccco3)oc2C)cc1`: the melting point lay in the range of 142 to 143 °C.

`O=C(Cn1ccnc1[N+](=O)[O-])c1cccnc1` came in with a melting point of 125 to 127 °C.

For the compound `N#CC(C=O)c1ccccc1` (stereo not drawn), the melting point was 161 to 163 °C.

The compound `NC(=O)c1ncn2c(-c3ccc(N4CCOCC4)cc3)ccnc12` displayed a melting point of 274 to 277 °C. For `CCNC(=O)C(C)(C)COc1cccc2nc(C)c(C(=O)O)c(N)c12` the value was 168 to 170 °C; for `NS(=O)(=O)c1ccc(-c2cnn(-c3ccc(F)c(F)c3)c(=O)c2Oc2ccc(F)cc2)cc1`, 224 to 226 °C; for `CC(=O)c1ccc(OCCOc2ccc3ccccc3c2)c(Cl)c1`, 164 to 166 °C.

Compound `CCOC(=O)c1ncn2c1C(C)N=C(c1ccccc1)c1cc(C#C[Si](C)(C)C)ccc1-2` (stereo not drawn) yielded a melting point of 160 to 162 °C.

In turn, `COc1cc(C=O)cc2c(C)c(C)oc12` returned a melting point of 80 to 81 °C. For `CCOC(=O)c1ccc(N2CCC(NCC(O)COc3ccc(N)nc3)CC2)nc1` (stereo not drawn) the value was 120 to 122 °C; for `Cc1ccc(S(=O)(=O)OCP(=O)(OC(C)C)OC(C)C)cc1`, 37.5 °C. As to `COc1ccc(N2CCN(c3c(C)c(C(C)O)c4c(c3C)C(c3ccc(C)cc3)C(C)(C)O4)CC2)cc1` (stereo not drawn), the melting point lay within 149 to 151 °C. For `CC(=O)CC(=O)c1cccc2[nH]ccc12` the value was 104 to 105 °C; for `c1cnc2c(c1)ncn2CCCCc1nnnn1C1CCCCC1`, 94 to 95 °C.

The compound `COc1ccc2c(c1)CCC(c1ccccc1)=C2c1ccccc1` displayed a melting point of 98 to 101 °C. The same measure for `O=C(c1ccc(-c2ccccc2)cc1)C(Br)CCCl` (stereo not drawn): 85 to 88 °C; for `Cc1cc2[nH]ncc2cc1NC1=NCCS1`: 218 to 221 °C. The same measure for `COC(=O)c1ccc(C2C(C#N)=C(CC(C)C)NC(C)=C2C(=O)OC(C)(C)C)cc1` (stereo not drawn): 191 to 193 °C; for `O=C(Nc1ccccc1-c1nc2cccnc2o1)c1ccccc1`: 197 to 198 °C; for `NCC(=O)N(N)c1ccc2ccccc2c1`: 147 to 148 °C. For `Cc1ncc2cc(-c3ccccc3Cl)c(N)nc2n1` the value was 259 to 260 °C.

On to `CC1SC(=O)NN=C1c1ccc2c(c1)C(=Nc1ccc(N(C)C)cc1)C(=O)N2` (stereo not drawn), for which the melting point stood at 261 °C. The same measure for `O=[N+]([O-])c1ccc(-c2cc3c(Nc4cccc(Cl)c4)ncnc3[nH]2)cc1`: greater than 250 °C; for `CC(=O)OC1CC2C3CCC(C(C)CCCC(C)C)C3(C)CCC2C2(C)CC(F)C(=O)CC12` (stereo not drawn): 153 to 156 °C; for `COc1ccc(-c2nc3cc(Cl)c(Cl)cc3n2C(=O)OCc2ccccc2)cc1[N+](=O)[O-]`: 212 to 214 °C. The compound `CC(C)(C)OC(=O)N1CC(CCl)c2c1cc(OCc1ccccc1)c1ncccc21` (stereo not drawn) registered a melting point of 178 to 179 °C.

Regarding `CCS(=O)(=O)Oc1cn(C)c2cc(F)ccc2c1=O`, the melting point lay in the range of 154 to 156 °C. As for `FC(F)(F)c1cc(Br)c2nc(N3CCN(c4ncccc4C(F)(F)F)CC3)[nH]c2c1`, the melting point stood at 196 °C. For `CC(C)(C)SC(=O)C=CC1C(C(=O)OCc2ccc(F)c(Oc3ccccc3)c2)C1(C)C` (stereo not drawn) the value was 82 °C; for `CCCn1c(CCOC)nc2c(N)nc3cc(Oc4ccc(S(C)(=O)=O)cc4)ccc3c21`, 210 to 212 °C. For `CCCCc1nc(Cl)c(C(=O)O)n1Cc1ccc2oc(-c3ccccc3-c3nnn[nH]3)c(C(C)(C)C)c2c1`, the melting point lay within 129 to 132 °C.

As to `COc1cc(OC)c2c(c1)OC(C(C)(C)C#N)CC2=O` (stereo not drawn), the melting point came out at 170 °C. The compound `COC(=O)CC[C@@H](CF)NC(=O)c1ccccc1` displayed a melting point of 99.5 to 100 °C. For `CC1CCOC(CBr)(c2ccc(Cl)cc2Cl)O1` (stereo not drawn) the value was 69 to 70.5 °C; for `COc1cc2ncnc(NC3=CC(=O)C(Nc4ccccc4)=CC3=O)c2cc1OC`, 258 to 261 °C; for `COc1ccc(-c2nc(-c3ccc(Br)cc3)sc2-c2ccc(OC)cc2)cc1`, 155 to 157 °C. For `CCc1n[nH]c(CC)c1Oc1cccc(C#N)c1` the value was 81 to 84 °C; for `O=C(O)C(c1ccc(Cl)cc1)c1c(Cl)cc(-n2ncc(=O)[nH]c2=O)cc1Cl` (stereo not drawn), 220 °C. For `Nc1ncc(-c2cccc(Cl)c2Cl)c(Cl)n1` the value was 228 to 230 °C; for `CSC(=NC(=O)Cc1ccccc1)N(C)N=Cc1ccccc1`, 147 to 148 °C.

Consider `CC1CCN(c2ccnc(NC(=O)NCc3ccccn3)c2)C1=O` (stereo not drawn), for which the melting point lay in the range of 190 to 191 °C. For `CCCCCCCCCCOc1cc(OCCCCCCc2cccc(O)c2O)cc(C(=O)O)c1` the value was 86 to 88 °C. For `CCN1CCc2ccc(Nc3ncc(Cl)c(Nc4cc(Cl)ccc4C(=O)NC)n3)cc2CC1` the value was 223 °C. For `CC1(CF)C=C(C(=O)NCCC#N)c2cc([N+](=O)[O-])ccc2O1` (stereo not drawn) the value was 165 to 167 °C; for `NC(=O)c1ccc(-c2ccc(-c3ccn(C(CC(=O)O)C(=O)NC(CO)Cc4ccccc4)c3)cc2)cc1` (stereo not drawn), 218 to 220 °C.

`Cc1ccc(S(=O)(=O)N2[C@H](CCCCC#N)CC[C@@H]2c2ccc(F)cc2)cc1` (racemic) returned a melting point of 79 °C.

For the compound `Fc1ccc2c(c1)[C@@H]1c3ccccc3N[C@@H]1C2` (relative stereo), the melting point lay in the range of 116 to 117 °C. The same measure for `O=C(O)CCNc1cccc(Br)n1`: 108 to 109 °C; for `CCc1nc2c(N)nc3cc(-c4cncc(CO)c4)ccc3c2n1CC(C)(C)O`: greater than 250 °C; for `CCOC(=O)CCc1ccc2c(c1)c(-c1cc3cccnc3n1S(=O)(=O)c1ccc(C)cc1)cn2C`: 280 to 282 °C. The same measure for `Nc1nc(F)cc(CF)n1`: 189 to 190 °C; for `CN(C(=O)c1ccc2nonc2c1)[C@H]1CC[C@@H](C#N)CC1`: 180 to 181 °C. The compound `C#Cc1cccc(Nc2ncnc3cc4c(cc23)OCO4)c1` gave a melting point greater than 350 °C. The same measure for `CC(C)OC(=O)c1c(S(C)(=O)=O)ccc(C(=O)O)c1Cl`: 114 to 118 °C; for `COc1ccn2nc(S(=O)(=O)Cl)nc2n1`: 110 to 112 °C. The same measure for `Cc1ccccc1C(=O)Nc1ccc(C(=O)N2CCCC(O)c3cc(Cl)ccc32)c(C)c1` (stereo not drawn): 224 to 226 °C; for `CS(=O)(=O)Nc1ccccc1OCCCN1CCC(OC(c2ccccc2)c2ccccc2)CC1`: 106 to 107 °C; for `N#Cc1cc(/C=C/C(=O)Nc2ccc(Br)cc2)ccc1F`: 205 to 210 °C. The same measure for `O=C1N[C@@H](C(=O)NO)C[C@H]1c1ccc(-c2ccc(F)cc2)cc1`: 193 to 202 °C; for `O=c1[nH]c2ccc(S(=O)(=O)O)cc2[nH]c1=O`: greater than 300 °C.

In the case of `CCS(=O)(=O)c1cc2c(c(C(=O)O)c1)OCCO2`, the melting point was 217 to 218 °C. The same measure for `CCOC(=O)c1cnc2c(F)c(F)c(F)cc2c1Cl`: 110 to 112 °C; for `CN1CCC2(CC1)c1ccccc1Oc1c(N)cccc12`: 173 to 174 °C; for `S=C=Nc1ccc2sc(-c3cccnc3)nc2c1`: 160 to 162 °C. Take `CC(C)n1nc(-c2c(NCc3ccccn3)nc(N)nc2-c2ccccc2)ccc1=O`: the melting point was 196 to 198 °C. `COc1ccnc(CSc2nc3cc(Cl)c(Cl)cc3[nH]2)c1C`: the melting point lay within 254 to 256 °C. For `O=C(O)CCc1cn(Cc2ccc(OCc3coc(-c4ccccc4)n3)cc2)nc1-c1cccs1` the value was 145 to 146 °C. The same measure for `Cc1ccc2nc(C)c(CCN3CCC(c4noc5cc(F)ccc45)CC3)c(=O)n2c1`: 187 °C; for `OC(c1ccccc1)c1cc(Cl)ccc1CNC(=S)NCCc1ccccc1` (stereo not drawn): 97 °C.

Compound `CC(C)C(=O)O[C@H]1[C@H](C)OC(=O)[C@@H](NC(=O)OC(C)(C)C)COC(=O)[C@@H]1CC(=O)OC(C)(C)C` gave a melting point of 170 to 172 °C. The compound `CCC(=O)SCC(CC(=O)c1ccccc1)C(=O)O` (stereo not drawn) had a melting point of 76 to 78 °C.

For the compound `CC(C)Oc1c(-c2ccc3c(c2)[C@@H](N2Cc4ccccc4C2=O)[C@H](O)C(C)(C)O3)c(=O)c1=O` (relative stereo), the melting point is greater than 250 °C. The same measure for `c1ccc2c(c1)c1ccccc1n2CCCCCCn1c2ccccc2c2ccccc21`: 124 to 126 °C; for `CC(=O)c1ccc(OCc2ccccc2)c2ncccc12`: 131 to 133 °C; for `CCn1nc(C#N)c(Nc2ccc(Cl)cc2[N+](=O)[O-])n1`: 130 to 132 °C. The same measure for `NC(=O)CCC(Nc1ccc2ccccc2n1)C(=O)O` (stereo not drawn): 222 to 226 °C; for `CCCCc1ncc(/C=C2\C(=O)NC(=O)N2CCC(C)C)n1Cc1ccc(C(=O)O)cc1`: 143 to 146 °C; for `Fc1cc2c(c(-c3c(Cl)cccc3Cl)c1)OC(CNC1CCC1)C2` (stereo not drawn): 128 to 130 °C.

Consider `Cc1cc(C(F)(F)C(F)(F)F)ccc1NC(=O)c1cccc(I)c1C(=O)NC(C)C`, for which the melting point lay in the range of 195 to 196 °C.
